For 16 molecules, EC50 and IC50 results are on record in patent US20250320213A1, “Nitrogen-Containing Heterocyclic Compounds” (Pfizer Inc., priority 2024, published 2025).

One test has as its target T1, STAT6 (Homo sapiens, UniProt P42226).
T1 construct: stably transfected HaCaT keratinocyte cell line, which expresses NanoLuc luciferase reporter gene under the transcriptional control of the STAT6 responsive promoter; endogenous in cells; host or cells: HaCaT keratinocyte reporter cell line (stably transfected with a NanoLuc reporter)
T1 sequence (P42226 1-847): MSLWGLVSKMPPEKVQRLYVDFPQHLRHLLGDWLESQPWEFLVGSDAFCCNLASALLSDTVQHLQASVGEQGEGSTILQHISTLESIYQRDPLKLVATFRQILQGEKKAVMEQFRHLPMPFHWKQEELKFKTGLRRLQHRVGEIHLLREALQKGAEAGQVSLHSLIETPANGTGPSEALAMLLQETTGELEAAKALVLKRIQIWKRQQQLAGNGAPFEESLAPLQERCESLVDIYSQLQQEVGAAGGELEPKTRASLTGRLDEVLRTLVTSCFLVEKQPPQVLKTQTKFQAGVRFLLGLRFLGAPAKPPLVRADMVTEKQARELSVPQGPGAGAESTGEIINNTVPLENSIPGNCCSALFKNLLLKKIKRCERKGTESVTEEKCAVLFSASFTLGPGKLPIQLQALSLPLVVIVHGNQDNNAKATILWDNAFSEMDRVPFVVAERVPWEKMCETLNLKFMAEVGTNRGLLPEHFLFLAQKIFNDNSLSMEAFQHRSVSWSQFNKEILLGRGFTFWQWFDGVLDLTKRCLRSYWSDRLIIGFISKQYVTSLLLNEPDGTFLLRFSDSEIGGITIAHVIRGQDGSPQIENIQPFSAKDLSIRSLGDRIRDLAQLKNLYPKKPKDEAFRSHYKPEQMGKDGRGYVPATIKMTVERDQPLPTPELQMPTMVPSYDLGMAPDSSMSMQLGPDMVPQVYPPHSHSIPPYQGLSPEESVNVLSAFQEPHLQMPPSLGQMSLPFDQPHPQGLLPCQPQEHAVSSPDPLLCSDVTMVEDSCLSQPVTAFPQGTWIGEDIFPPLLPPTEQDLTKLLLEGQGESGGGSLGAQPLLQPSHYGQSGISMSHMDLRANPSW
The experiment in a line: STAT6 Reporter Luciferase Assay (IL-13 stimulated HaCaT keratinocyte NanoLuc reporter cells). The test is classed as cell-based. The method, boiled down:
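IL-13 (0.12 nM, 4 h) stimulated STAT6 reporter activity in HaCaT cells after a 2 h compound pre-incubation; NanoLuc signal was measured.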

The subject of test [1] is CCL17 secretion in peripheral human whole blood. Description: Human Whole Blood (HWB) CCL17 TR-FRET Assay (IL-13 stimulated CCL17 secretion). It is filed as cell-based. The settings on record: human whole blood, IL-13 stimulated. In a few lines: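 TR-FRET sandwich immunoassay (665/615 nm ratio) read CCL17 in serum from heparinized whole blood after 16 h RT detection. Blood was exposed to compound for 2 h at 37 °C, then to 10 ng/mL IL-13 (final) for 48 h. IC50 from 11-point, 3-fold titrations in duplicate.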
On the technique in general: TR-FRET usually uses a lanthanide donor and a delayed reading to cut background.

Setting [2] is: IL-13 stimulated HaCaT STAT6 NanoLuc reporter cells, read-out: Reporter EC50.

The structures appear in SMILES notation. Where a name gives a salt, the structure may show the parent alone. Read-outs that look alike come from different tables or passages of the source.

For orientation: EC50 means the concentration needed to bring the measured effect to its halfway point. One may read the IC50 as the midpoint of a concentration-inhibition curve. High values mean lower potency, low ones higher potency. Regarding `CCn1nc(C(=O)NCc2ccc(NC(=O)N(C)C)cc2)c2c1[C@@H](C)CN(c1ccc(C(=O)N3Cc4cccnc4C3)cn1)C2` [Example 477, (S)-5-(5-(6,7-dihydro-5H-pyrrolo[3,4-b]pyridine-6-carbonyl)pyridin-2-yl)-N-(4-(3,3-dimethylureido)benzyl)-1-ethyl-7-methyl-4,5,6,7-tetrahydro-1H-pyrazolo[4,3-c]pyridine-3-carboxamide], the EC50 at STAT6 (setting [2]) is 0.4 nM. In addition, the IC50 in test [1] (Homo sapiens, 48 h) came out at 4 nM.

With `CNC(=O)c1ccc(CNC(=O)c2nn(C(C)C)c3c2CN(c2ccc(N4CCCC4=O)cn2)C[C@@H]3C)cc1` [Example 478, (S)-1-isopropyl-7-methyl-N-(4-(methylcarbamoyl)benzyl)-5-(5-(2-oxopyrrolidin-1-yl)pyridin-2-yl)-4,5,6,7-tetrahydro-1H-pyrazolo[4,3-c]pyridine-3-carboxamide], the EC50 on STAT6 (setting [2]) came out at 2 nM. Also, in test [1] (Homo sapiens, 48 h), half-maximal inhibition (IC50) was put at 17 nM.

Take `CC(C)n1nc(C(=O)NCc2ccc(C(N)=O)cc2)c2c1[C@@H](C)CN(c1ccc(N3CCCC3=O)cn1)C2` [Example 479, (S)-N-(4-carbamoylbenzyl)-1-isopropyl-7-methyl-5-(5-(2-oxopyrrolidin-1-yl)pyridin-2-yl)-4,5,6,7-tetrahydro-1H-pyrazolo[4,3-c]pyridine-3-carboxamide]: the EC50 at STAT6 (setting [2]) is 4 nM. The IC50 in test [1] (Homo sapiens, 48 h) amounted to 15 nM.

In the case of `CNC(=O)Nc1ccc(CNC(=O)c2nn(C(C)C)c3c2CN(c2ccc(N4CCCC4=O)cn2)C[C@@H]3C)cc1` [Example 480, (S)-1-isopropyl-7-methyl-N-(4-(3-methylureido)benzyl)-5-(5-(2-oxopyrrolidin-1-yl)pyridin-2-yl)-4,5,6,7-tetrahydro-1H-pyrazolo[4,3-c]pyridine-3-carboxamide], the EC50 on STAT6 (setting [2]) amounted to 0.3 nM. In test [1] (Homo sapiens, 48 h), this molecule gave an IC50 of 3 nM.

With `CNC(=O)Nc1ccc(CNC(=O)c2nn(C(C)C)c3c2CN(c2ncc(N4CCCC4=O)cn2)C[C@@H]3C)cc1` [Example 481, (S)-1-isopropyl-7-methyl-N-(4-(3-methylureido)benzyl)-5-(5-(2-oxopyrrolidin-1-yl)pyrimidin-2-yl)-4,5,6,7-tetrahydro-1H-pyrazolo[4,3-c]pyridine-3-carboxamide], the EC50 at STAT6 (setting [2]) worked out at 1 nM. In test [1] (Homo sapiens, 48 h), this molecule returned an IC50 of 14 nM.

For `CCn1nc(C(=O)NCc2ccc(NC(=O)NC)cc2)c2c1[C@@H](C)CN(c1ncc(N3CCCC3=O)cn1)C2` [Example 482, (S)-1-ethyl-7-methyl-N-(4-(3-methylureido)benzyl)-5-(5-(2-oxopyrrolidin-1-yl)pyrimidin-2-yl)-4,5,6,7-tetrahydro-1H-pyrazolo[4,3-c]pyridine-3-carboxamide], the EC50 on STAT6 (setting [2]) is 7 nM. In addition, it took 25 nM to reach half-maximal inhibition in test [1] (Homo sapiens, 48 h) (IC50).

As for `CCn1nc(C(=O)NCc2ccc(C(N)=O)cc2)c2c1[C@@H](C)CN(c1ncc(N3CCCC3=O)cn1)C2` [Example 483, (S)-N-(4-carbamoylbenzyl)-1-ethyl-7-methyl-5-(5-(2-oxopyrrolidin-1-yl)pyrimidin-2-yl)-4,5,6,7-tetrahydro-1H-pyrazolo[4,3-c]pyridine-3-carboxamide], at STAT6 (setting [2]), the half-maximal effective concentration (EC50) came out at 33 nM. The same molecule returned an IC50 in test [1] (Homo sapiens, 48 h) of 63 nM.

For the molecule `CCn1nc(C(=O)NCc2ccc(C(=O)NC)cc2)c2c1[C@@H](C)CN(c1ncc(N3CCCC3=O)cn1)C2` [Example 484, (S)-1-ethyl-7-methyl-N-(4-(methylcarbamoyl)benzyl)-5-(5-(2-oxopyrrolidin-1-yl)pyrimidin-2-yl)-4,5,6,7-tetrahydro-1H-pyrazolo[4,3-c]pyridine-3-carboxamide], the EC50 on STAT6 (setting [2]) came out at 26 nM. The molecule further displayed a concentration for half-maximal inhibition (IC50) in test [1] (Homo sapiens, 48 h) of 108 nM.

In the case of `CC(C)n1nc(C(=O)NCc2ccc(NC(=O)N3CCC(OC4CCNCC4)CC3)cc2)c2c1[C@@H](C)CN(c1ccc(C(=O)N(C)C)cc1)C2` [Example 485, (S)-5-(4-(Dimethylcarbamoyl)phenyl)-1-isopropyl-7-methyl-N-(4-(4-(piperidin-4-yloxy)piperidine-1-carboxamido)benzyl)-4,5,6,7-tetrahydro-1H-pyrazolo[4,3-c]pyridine-3-carboxamide hydrochloride], on STAT6 (Reporter EC50, IL-13 stimulated HaCaT STAT6 NanoLuc reporter cells), the EC50 came to 1 nM. Moreover, inhibition in test [1] (48 hours) was half-maximal at 4 nM (IC50).

Regarding `CC(C)n1nc(C(=O)NCc2ccc(NC(=O)N(C)C)cc2)c2c1[C@@H](C)CN(c1ncc(N3CCCC3=O)cn1)C2` [Example 486, (S)-N-(4-(3,3-dimethylureido)benzyl)-1-isopropyl-7-methyl-5-(5-(2-oxopyrrolidin-1-yl)pyrimidin-2-yl)-4,5,6,7-tetrahydro-1H-pyrazolo[4,3-c]pyridine-3-carboxamide], on STAT6 (setting [2]), the EC50 amounted to 2 nM. The molecule further yielded an IC50 in test [1] (Homo sapiens, 48 h) of 11 nM.

As for `CC(C)n1nc(C(=O)NCc2ccc(-c3ncc[nH]3)cc2)c2c1[C@@H](C)CN(c1ncc(N3CCCC3=O)cn1)C2` [Example 487, (S)-N-(4-(1H-imidazol-2-yl)benzyl)-1-isopropyl-7-methyl-5-(5-(2-oxopyrrolidin-1-yl)pyrimidin-2-yl)-4,5,6,7-tetrahydro-1H-pyrazolo[4,3-c]pyridine-3-carboxamide], the EC50 at STAT6 (setting [2]) was 2 nM. The same molecule registered an IC50 in test [1] (Homo sapiens, 48 h) of 16 nM.

For `CCn1nc(C(=O)NCc2ccc(NC(=O)N(C)C)cc2)c2c1[C@@H](C)CN(c1ncc(N3CCCC3=O)cn1)C2` [Example 488, (S)-N-(4-(3,3-dimethylureido)benzyl)-1-ethyl-7-methyl-5-(5-(2-oxopyrrolidin-1-yl)pyrimidin-2-yl)-4,5,6,7-tetrahydro-1H-pyrazolo[4,3-c]pyridine-3-carboxamide], the EC50 on STAT6 (setting [2]) turned out to be 3 nM. This molecule returned an IC50 in test [1] (Homo sapiens, 48 h) of 27 nM.

Consider `CC(C)n1nc(C(=O)NCc2ccc(C(N)=O)cc2)c2c1[C@@H](C)CN(c1ncc(N3CCCC3=O)cn1)C2` [Example 489, (S)-N-(4-carbamoylbenzyl)-1-isopropyl-7-methyl-5-(5-(2-oxopyrrolidin-1-yl)pyrimidin-2-yl)-4,5,6,7-tetrahydro-1H-pyrazolo[4,3-c]pyridine-3-carboxamide], for which the EC50 on STAT6 (setting [2]) was determined as 18 nM. This molecule also gave a half-inhibitory concentration (IC50) in test [1] (Homo sapiens, 48 h) of 17 nM.

`CNC(=O)c1ccc(CNC(=O)c2nn(C(C)C)c3c2CN(c2ncc(N4CCCC4=O)cn2)C[C@@H]3C)cc1` [Example 490, (S)-1-isopropyl-7-methyl-N-(4-(methylcarbamoyl)benzyl)-5-(5-(2-oxopyrrolidin-1-yl)pyrimidin-2-yl)-4,5,6,7-tetrahydro-1H-pyrazolo[4,3-c]pyridine-3-carboxamide]: at STAT6 (setting [2]), the EC50 is 13 nM. The same molecule registered an IC50 in test [1] (Homo sapiens, 48 h) of 50 nM.

With `CC(C)n1nc(C(=O)NCc2ccc(N)cc2)c2c1[C@@H](C)CN(c1ncc(C(=O)N(C)C)cn1)C2` [Example 491, (S)-N-(4-aminobenzyl)-5-(5-(dimethylcarbamoyl)pyrimidin-2-yl)-1-isopropyl-7-methyl-4,5,6,7-tetrahydro-1H-pyrazolo[4,3-c]pyridine-3-carboxamide], the concentration giving a half-maximal response (EC50) at STAT6 (setting [2]) came out at 7 nM. Further, the IC50 in test [1] (Homo sapiens, 48 h) amounted to 34 nM.

Take `CC(C)n1nc(C(=O)NCc2ccc(NC(=O)NCc3ccc(NC(=O)N(C)C)cc3)cc2)c2c1[C@@H](C)CN(c1ncc(C(=O)N(C)C)cn1)C2` [Example 492, (S)-5-(5-(dimethylcarbamoyl)pyrimidin-2-yl)-N-(4-(3-(4-(3,3-dimethylureido)benzyl)ureido)benzyl)-1-isopropyl-7-methyl-4,5,6,7-tetrahydro-1H-pyrazolo[4,3-c]pyridine-3-carboxamide]: at STAT6 (setting [2]), the EC50 was 0.5 nM. The IC50 in test [1] (Homo sapiens, 48 h) is 4 nM.
